Data on four molecules can be found in paper PMC10180197, “Novel Pyrimidine Derivatives as Antioxidant and Anticancer Agents: Design, Synthesis and Molecular Modeling Studies” (Molecules, 2023).

A short description of data set [1]: Inhibition of AAPH induced linoleic acid peroxidation. The procedure: For the lipid peroxidation study, 2,2′-Azobis(2-methylpropionamidine) dihydrochloride (AAPH) was used as the generator of peroxy radicals and sodium linoleate as the substrate that undergoes peroxidation. The conversion of linoleic acid to 13-hydroperoxy-linoleic acid was recorded at 234 nm. The change of absorbance reflects the possible antioxidant activity of the tested compounds, in comparison with the reference compound, Trolox.
In vitro study was performed as reported previously by our group. AAPH was used as a free radical generator of alkyl peroxyl radicals. For this experimental procedure, 10 μL of the tested compound (from the stock solution), 10 μL sodium linoleate (16 mM), 50 μL AAPH (40 mM) and 930 μL phosphate-buffered solution (pH 7.4) were added in a UV cuvette (1 mL), pre thermostated at 37 °C. The ability of the compounds to prevent the oxidation of linoleic acid from alkyl peroxyl radicals was evaluated by recording the change of absorbance at 234 nm, due to the conversion of linoleic acid to 13-hydroperoxy-linoleic acid. Trolox was used as the reference.

A short description of data set [2]: MTT cell viability assay, HaCaT. Format: cell-based, human. To be noted: human, HaCaT cells (epidermal keratinocyte cell line), 100 μΜ. The protocol: The MTT (3-(4,5-dimethylthiazol-2-yl)-2,5-diphenyltetrazolium bromide) assay is a colorimetric method that is used for the evaluation of cell viability. MTT is converted into colored formazan crystals, indicating the activity of mitochondria and therefore the viability of the cells. Unlike dead cells, the metabolic processes of living cells are functional, meaning that the dehydrogenase enzymes are able to reduce the yellow MTT salt solution to purple crystals, at 37 °C. The intensity of the sample’s color, due to the amount of formazan crystals, is proportional to the number of the living cells in it. Additionally, the colored product is dissolved in various solubilizing agents, such as dimethyl sulfoxide (DMSO). The colored products can be quantitatively measured at 450 nm with a plate reader spectrophotometer. In this study, the human epidermal keratinocyte cell line (HaCaT) was treated with different concentrations (100 μM, 50 μM, 10 μM and 1 μM) of the tested compounds and then the viability rates at each effect were calculated.
(§1) Τhe MTT assay was used to evaluate cell viability or cell toxicity, depending on the cell line being tested. The experimental procedure was performed in a 96-well plate, where the cells were seeded and incubated (37 °C, 5% CO2) for 24 h to grow and cover the surface of the wells. Τhe seeding concentrations for the HaCaT and A549 cells were 30 × 10^4 cells/mL and 20 × 10^4 cells/mL, respectively. After the first incubation, the solutions of the compounds (with different concentrations) were added to the adherent cells and incubated for another 24 h. The compounds were tested in triplicate against the control (only cells in medium), the blank (only medium) and the positive/negative control (cells in 100 μM silibinin solution) triplicates. Silibinin, a flavonoid with known anticancer activities, was used as a negative control for the cell viability assay and as positive control for the cytotoxicity testing assay. The light-sensitive MTT-standard solution was prepared by dissolving 1 mg/mL MTT in PBS and then filtrated (in a […] filter (Millipore, Carrigtwohill, Ireland)). On the third day, an appropriate amount of ΜΤΤ solution was added to each well and the plate was incubated for 4 h. During the incubation time, the formazan crystals were formed, which were then dissolved with 100 μL DMSO per well. Finally, the plate was stirred for 30 min, and the optical density (OD) was measured in a plate reader spectrophotometer at 450 nm.
For orientation: Tetrazolium assays rely on reduction of a dye to a coloured formazan, in cell work by metabolically active cells.

Another data set has as its system A549 cell line. As to the kind of experiment: MTT cytotoxicity assay, A549. The data set is classed as cell-based, human. The conditions noted are these: Homo sapiens; A549, 100 μΜ, 24 h; read-out: % Cell Toxicity 100 μΜ. The protocol: The compounds of this study were also tested for their cytotoxic effects against the adenocarcinomic human alveolar basal epithelial cell line (A549) at different concentrations (100 μM, 75 μΜ, 50 μM and 10 μM).
as §1

A short description of data set [3]: Reducing activity of the stable radical DPPH. The protocol: All the synthesized compounds were studied for their ability to interact with the stable free 2,2-diphenyl-1-picrylhydrazyl radical (DPPH) at a concentration of 100 μM after 20 min and 60 min (Table 4). This assay is based on the reduction of DPPH by transferring one electron from the antioxidant.
In vitro study was performed as reported previously by our group. In this experiment, 20 μL of the tested compound (from the stock solution), 980 μL EtOH and 1 mL ethanolic solution of DPPH (100 μM) were added in a testing tube in a final volume of 2 mL. The free radical scavenging ability was evaluated by recording the change of absorbance at 517 nm, produced by the reduction of DPPH, after 20 and 60 min at room temperature.

A further data set addresses T1, soybean lipoxygenase (Glycine max, UniProt P08170).
T1 construct: purchased Sigma Aldrich- Merck KGaA, Darmstadt, Germany
T1 sequence (P08170 1-839): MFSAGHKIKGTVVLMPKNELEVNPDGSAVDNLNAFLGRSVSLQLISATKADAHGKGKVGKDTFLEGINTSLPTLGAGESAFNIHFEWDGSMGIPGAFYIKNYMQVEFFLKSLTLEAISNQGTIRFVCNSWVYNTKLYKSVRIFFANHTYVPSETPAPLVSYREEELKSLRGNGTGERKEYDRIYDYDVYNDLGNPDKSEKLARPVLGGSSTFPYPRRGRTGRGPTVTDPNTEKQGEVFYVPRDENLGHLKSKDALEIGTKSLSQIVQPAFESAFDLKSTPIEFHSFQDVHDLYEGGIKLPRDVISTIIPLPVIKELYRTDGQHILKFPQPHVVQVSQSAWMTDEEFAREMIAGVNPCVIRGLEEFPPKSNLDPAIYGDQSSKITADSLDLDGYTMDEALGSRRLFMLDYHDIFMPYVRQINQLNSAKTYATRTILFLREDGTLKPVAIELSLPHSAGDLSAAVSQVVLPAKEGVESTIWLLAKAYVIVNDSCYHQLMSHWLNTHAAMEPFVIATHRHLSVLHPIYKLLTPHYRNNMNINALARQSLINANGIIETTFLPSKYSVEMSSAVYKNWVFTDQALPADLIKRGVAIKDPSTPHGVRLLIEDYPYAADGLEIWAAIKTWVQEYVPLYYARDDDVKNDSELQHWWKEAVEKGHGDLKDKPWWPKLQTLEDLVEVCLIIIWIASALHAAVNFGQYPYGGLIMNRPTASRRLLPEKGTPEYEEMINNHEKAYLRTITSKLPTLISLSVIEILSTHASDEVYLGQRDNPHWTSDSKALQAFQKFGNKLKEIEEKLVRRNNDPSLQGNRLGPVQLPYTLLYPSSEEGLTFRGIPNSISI
As to the kind of experiment: Inhibition of soybean lipoxygenase. The data set is classed as biochemical. The conditions noted are these: 100 μM; cells of the mixed column without μM; read-out: LOX % Inhibition 100 μM. An excerpt: Lipoxygenase (LOX) is the key enzyme in the biosynthesis of inflammatory mediators; thus, it is considered a target for inflammatory diseases. Soybean LOX is a plant enzyme that has been used widely as a prototype for studying the functional and structural properties of the homologous family of lipoxygenases, presenting satisfactory homology with the human 5-LOX [42]. Linoleic acid is the most common substrate in plant LOX. […] Lipophilicity is considered one of the most important parameters with regard to LOX inhibitors according to the literature.
In vitro study was performed as reported previously by our group. In this experiment, 10 μL of the tested compound (from the stock solution) were incubated with 100 μL sodium linoleate (diluted in Tris buffer), 200 μL LOX solution (1:9 × 10^−4 w/v in saline) and 690 μL Tris buffer (pH 9.0) at room temperature. The absorbance was measured at 234 nm, where the change of absorbance was recorded due to the formation of 13-hydroperoxy-linoleic acid. […] In order to determine the IC50 values, different concentrations were used.

Data set [4] in a line: Experimental determination of lipophilicity as RM values (RP-TLC). The data set is classed as physicochemical. To be noted: methanol/water 70/30 v/v, 24 °C, SD < 10%. An excerpt:
Lipophilicity is an important physicochemical parameter of a drug candidate, linking solubility and membrane permeability with the ADMET (absorption, distribution, metabolism, elimination and toxicity) properties and the overall suitability of a molecule. Reversed-phase thin-layer chromatography was the method used to experimentally determine the lipophilic character of the synthesized compounds as RM values (Table 2). Lipophilicity was also theoretically calculated as clog P values using the Bio-Loom program of BioByte Corp (http://www.biobyte.com/, (accessed on 1 March 2023)). An attempt was made to correlate the experimental RM values with the theoretically calculated clog P values (Table 2). […] This disagreement could be attributed to several factors, e.g., different solvation, silanophilic interactions and hydrogen bonding.
Lipophilicity as RM values was determined through reversed-phase TLC (RP-TLC) on silica gel plates impregnated with 5% v/v liquid paraffin in light petroleum ether. Methanol/water mixture (70/30, v/v) was used as mobile phase. Closed chromatography tanks saturated with the mobile phase at 24 °C were used for the development of the plates while the spots were detected under UV light. For the determination of RM values, five individual measurements of Rf values were recorded, and the RM values were derived from the following Equation (1). (1) RM=log1/Rf−1

Consider `Cc1c(C)c2c(c(C)c1O)CCC(C)(C(=O)O)O2` (centres unmarked) [Trolox, 6-Hydroxy-2,5,7,8-tetramethyl-chroman2-carboxylic acid, reference compound], for which the “AAPH % Inhibition 100 μM” value in data set [1] is listed as “- 92%”.

Take `COc1cc(C2Oc3cc([C@H]4Oc5cc(O)cc(O)c5C(=O)[C@@H]4O)ccc3OC2CO)ccc1O` (some centres unmarked) [Silibinin, reference compound]: the viability (commonly a read-out of living cells in per cent, often relative to untreated cells) at 24 h, 100 μM in data set [2] was determined as 14.9%. Besides, the cytotoxicity at 100 µM in the data set on A549 cell line was 96.4%.

As to `CC(Cc1ccc(O)c(O)c1)C(C)Cc1ccc(O)c(O)c1` (centres unmarked) [NDGA, Nordihydroguaretic acid, reference compound], the “RA % 100 μM 20 min” value in data set [3] (20 min) is 87 - %. In addition, in data set [3] (60 min), the “RA % 100 μM 60 min” value was 93 - %.

For the molecule `O=C(/C=C/c1cccs1)c1ccccc1` [Compound 1c, (E)-1-phenyl-3-(thiophen-2-yl)prop-2-en-1-one], the melting point (usually the temperature, or range, at which the solid turns liquid) fell in the range of 58 to 60 °C. In addition, the inhibition (in general, how much of the control response was suppressed) at 100 µM at soybean lipoxygenase came out at 6%. The molecule further yielded an RM in data set [4] of −0.52.
